IC50 data for 40 compounds are collected here from patent US20030187007A1, “Inhibitors of protein kinase for the treatment of disease” (priority 2001, published 2003).

Experiment [1] deals with CDK2 complexed with cyclin A (Homo sapiens, UniProt P24941). The experiment in a line: Cyclin dependent kinase activity assay, phosphorylation of synthetic peptide PKTPKKAKKLRRR
It is filed as biochemical. The following applies: 0.1 mM ATP, read-out: CDK 2 Activity*. As for the experimental part:
(§1) The assay of cyclin dependent kinase activity was determined by monitoring the phosphorylation of a synthetic peptide, PKTPKKAKKLRRR. The assay mixture contained 0.1 mM cold ATP, ^33P-γ-ATP (2000-4000 cpm/μL), 0.1 mM peptide, 1 mM DTT, and 10 mM MgCl2 in 100 mM HEPES buffer pH 7.4. The assay mixture, along with inhibitor and CDK enzyme (0.3-0.4 U/mL; either CDK5 complexed with p25, CDK2 complexed with complexed with cyclin A), was mixed together in a microtiter plate in a final volume of 40 μL, sealed and incubated for 2 hours at 30° C. Following incubation, a 15 μL aliquot was added to a Whatman P81 filtration plate containing 100 μL 0.5% phosphoric acid. This mixture was allowed to stand for 5 minutes prior to filtration on a vacuum manifold. The filter plate was washed with 5 successive additions of 300 μL 0.5% phosphoric acid. The filtration plate was air dried for 10 minutes before sealing the bottom. After addition of scintillation fluid to the sealed plate, phosphorylated peptide was quantified in a scintillation counter.

For a further experiment, the target named is CDK5 complexed with p25 (Homo sapiens, UniProt Q00535). The experiment is described as above. In kind it is biochemical. The following applies: CDK5 complexed with p25, 0.1 mM ATP; read-out: CDK 5 Activity*. As for the experimental part: as §1

Structures are written as SMILES. Structures can show the parent of a compound that is named as a salt. A value given as a limit tells only on which side of the number the result lay.

Chain of CDK5 complexed with p25 (Q00535 whole entry): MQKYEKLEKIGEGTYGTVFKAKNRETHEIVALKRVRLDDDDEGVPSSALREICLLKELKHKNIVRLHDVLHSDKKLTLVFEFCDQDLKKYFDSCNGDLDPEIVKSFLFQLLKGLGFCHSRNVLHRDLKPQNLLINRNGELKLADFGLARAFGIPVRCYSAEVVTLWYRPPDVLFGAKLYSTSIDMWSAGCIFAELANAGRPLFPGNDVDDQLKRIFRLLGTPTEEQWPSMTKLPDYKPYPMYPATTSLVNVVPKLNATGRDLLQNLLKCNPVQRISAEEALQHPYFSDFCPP
Chain of CDK5 complexed with p25 (Q15078 99-307 partner limits assumed): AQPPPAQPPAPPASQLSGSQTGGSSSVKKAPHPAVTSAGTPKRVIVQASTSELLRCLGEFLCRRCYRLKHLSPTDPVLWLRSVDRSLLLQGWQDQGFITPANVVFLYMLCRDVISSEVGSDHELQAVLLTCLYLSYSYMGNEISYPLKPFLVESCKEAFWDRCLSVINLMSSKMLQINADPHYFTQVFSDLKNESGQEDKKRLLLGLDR

For the compound `Nc1nccc(-c2cc(-c3ccncc3)ccc2O)n1` [Example 62, 2-(2-Amino-pyrimidin-4-yl)-4-pyridin-4-yl-phenol], the IC50 (in experiment [1]; on CDK5 complexed with p25) was less than 0.5 µM in each case. In the case of `Nc1nc(-c2cc(-c3ccc(O)cc3)ccc2O)cc(N2CCCC2CO)n1` (stereo not drawn) [Example 79, 3-[2-Amino-6-(2R-hydroxymethyl-pyrrolidin-1-yl)-pyrimidin-4-yl]-biphenyl-4.4′-diol], in experiment [1], the IC50 is less than 0.5 µM.

Consider `COC(=O)c1cccc(-c2ccc(O)c(/C=N/NC(N)=S)c2)c1` [Example 12, 5-(3-Methoxycarbonylphenyl)salicylaldehyde thiosemicarbazone], for which the IC50 in experiment [1] is more than 5 µM; at CDK5 complexed with p25 it was 0.5 to 2 µM. The like results for `Cc1cc(-c2cc(-c3ccc(O)cc3)ccc2O)nc(N)n1` [Example 47, 3-(2-Amino-6-methyl-pyrimidin-4-yl)-biphenyl-4,4′-diol] were, in that order, less than 0.5 µM and less than 0.5 µM. Turning to `NC(=S)N/N=C/c1cc(/C=C/C(=O)O)ccc1O` [Example 38, 3-Formyl-4-hydroxycinnamic acid, thiosemicarbazone], the IC50 (in experiment [1]; at CDK5 complexed with p25) was less than 0.5 µM throughout. For `Nc1cccc(-c2ccc(O)c(-c3ccnc(N)n3)c2)n1` [Example 64, 4-(6-Amino-pyridin-2-yl)-2-(2-amino-pyrimidin-4-yl)-phenol], the IC50 (in experiment [1]; at CDK5 complexed with p25) was less than 0.5 µM throughout.

For `Nc1cnc(-c2cc(-c3ccc(O)cc3)ccc2O)nc1N` [Example 51, 3-(4,5-Diamino-pyrimidin-2-yl)-biphenyl-4,4′-diol], the IC50 (in experiment [1]; at CDK5 complexed with p25) was less than 0.5 µM each time. Consider `COc1cc(-c2cc(-c3ccc(O)cc3)ccc2O)nc(N)n1` [Example 50, 3-(2-Amino-6-methoxy-pyrimidin-4-yl)-biphenyl-4,4′-diol], for which the IC50 (in experiment [1]; on CDK5 complexed with p25) was less than 0.5 µM each time. On to `Nc1nccc(-c2cc(-c3ccc[nH]3)ccc2O)n1` [Example 69, 2-(2-Amino-pyrimidin-4-yl)-4-(1H-pyrrol-2-yl)-phenol], for which the IC50 (in experiment [1]; on CDK5 complexed with p25) was less than 0.5 µM each time. Regarding `COc1ccc(-c2ccc(O)c(/C=N/NC(N)=S)c2)cc1F` [Example 14, 5-(3-Fluoro-4-methoxyphenyl)salicylaldehyde thiosemicarbazone], the IC50 in experiment [1] was in the range of 2 to 5 µM; at CDK5 complexed with p25, 0.5 to 2 µM. The matching figures for `NC(=S)N/N=C/c1cc(-c2ccc(O)cc2O)ccc1O` [Example 27, 5-(2,4-Dihydroxyphenyl)salicylaldehyde thiosemicarbazone]: less than 0.5 µM and less than 0.5 µM. The like results for `Nc1nc(NCC(O)CO)cc(-c2cc(-c3ccc(O)cc3)ccc2O)n1` (stereo not shown) [Example 56, 3-[2-Amino-6-(2,3-dihydroxy-propylamino)-pyrmidin-4-yl]-biphenyl-4,4′-diol] were, in that order, less than 0.5 µM and less than 0.5 µM. The like results for `Nc1nccc(-c2cc(-c3c[nH]c(=O)[nH]c3=O)ccc2O)n1` [Example 70, 5-[3-(2-Amino-pyrimidin-4-yl)-4-hydroxy-phenyl]-1 H-pyrimidine-2.4-dione] were, in that order, more than 5 µM and 2 to 5 µM.

Take `NC(=S)N/N=C/c1cc(-c2ccc(Cl)s2)ccc1O` [Example 35, 5-[2-(5-Chloro-thienyl)]salicylaldehyde thiosemicarbazone]: the IC50 is 0.5 to 2 µM in experiment [1] and more than 5 µM on CDK5 complexed with p25. The like results for `NC(=S)N/N=C/c1cc(-c2ccc(O)cc2)ccc1O` [Example 21, 5-(4-Hydroxyphenyl)salicylaldehyde thiosemicarbazone] were, in that order, less than 0.5 µM and less than 0.5 µM. The like results for `Nc1cccc(-c2cc(-c3ccnc(N)n3)ccc2O)n1` [Example 71, 2-(2-Aminopyridin-6-yl)-4-(2-aminopyrimidin-4-yl)-phenol] were, in that order, less than 0.5 µM and less than 0.5 µM. The matching figures for `NC(=O)N/N=C/c1c(O)ccc2ccccc12` [Example 41, 2-[(2-Hydroxy-1-naphthyl)methylidene]hydrazine-1-carbamide hydrochloride]: less than 0.5 µM and less than 0.5 µM. In the case of `Nc1nc(-c2cc(-c3ccc(O)cc3)ccc2O)cc(N2CCCC(CO)C2)n1` (stereo not shown) [Example 82, 3-[2-Amino-6-(3-hydroxymethyl-piperidin-1-yl)-pyrimidin-4-yl]-biphenyl-4,4′-diol], the IC50 (in experiment [1]; at CDK5 complexed with p25) was less than 0.5 µM in each case. For the compound `Nc1cc(-c2cc(-c3ccc(O)cc3)ccc2O)nc(N)n1` [Example 52, 3-(2,6-Diamino-pyrimidin-4-yl)-biphenyl-4,4′-diol], the IC50 (in experiment [1]; on CDK5 complexed with p25) was less than 0.5 µM throughout.

As to `NC(=O)N/N=C/c1cc(Br)ccc1O` [Example 3, 5-Bromosalicylaldehyde semicarbazone hydrochloride], the IC50 in experiment [1] lay within 2 to 5 µM; at CDK5 complexed with p25 it was 0.5 to 2 µM.

Turning to `COC(=O)/C=C/c1ccc(O)c(/C=N/NC(N)=S)c1` [Example 37, Methyl (3-formyl-4-hydroxy)cinnamate, thiosemicarbazone], the IC50 is more than 5 µM in experiment [1] and 0.5 to 2 µM at CDK5 complexed with p25. The like results for `Nc1nccc(-c2cc(-c3ccc(O)c(F)c3)ccc2O)n1` [Example 53, 3-(2-Amino-pyrimidin-4-yl)-3′-fluoro-biphenyl-4,4′-diol] were, in that order, less than 0.5 µM and less than 0.5 µM. The like results for `NC(=S)N/N=C/c1c(O)ccc2ccccc12` [Example 42, 2-[(2-Hydroxy-1-naphthyl)methylidene]hydrazine-1-carbothioamide] were, in that order, less than 0.5 µM and less than 0.5 µM. The like results for `NC(=S)N/N=C/c1cc(-c2cccc(O)c2)ccc1O` [Example 20, 5-(3-Hydroxyphenyl)salicylaldehyde thiosemicarbazone] were, in that order, 0.5 to 2 µM and less than 0.5 µM. Turning to `Nc1nc(Cl)cc(-c2cc(-c3ccc(O)cc3)ccc2O)n1` [Example 54, 3-(2-Amino-6-chloro-pyrimidin-4-yl)-biphenyl-4,4′-diol], the IC50 (in experiment [1]; at CDK5 complexed with p25) was less than 0.5 µM each time. In the case of `NC(=S)N/N=C/c1cc(-c2ccc(CO)cc2)ccc1O` [Example 10, 5-(4-Hydroxymethylphenyl)salicylaldehyde thiosemicarbazone], the IC50 (in experiment [1]; on CDK5 complexed with p25) was more than 5 µM in each case. For the compound `Nc1nccc(-c2ccc(O)c(-c3cc(Cl)nc(N)n3)c2)n1` [Example 73, 2-(2-Amino-4-chloro-pyrimidin-6-yl)-4-(2-aminopyrimidin-4-yl)-phenol], the IC50 in experiment [1] is less than 0.5 µM.

Consider `Nc1cccc(-c2cc(-c3ccc(O)cc3)ccc2O)n1` [Example 49, 3-(6-Amino-pyridin-2-yl)-biphenyl-4,4′-diol], for which the IC50 (in experiment [1]; on CDK5 complexed with p25) was less than 0.5 µM in each case. On to `Nc1nc(NCCCCCO)cc(-c2cc(-c3ccc(O)cc3)ccc2O)n1` [Example 77, 3-[2-Amino-6-(5-hydroxy-pentylamino)-pyrimidin-4-yl]-biphenyl-4,4′-diol], for which the IC50 (in experiment [1]; on CDK5 complexed with p25) was less than 0.5 µM in each case. With `NC(=O)N/N=C/c1cc(-c2ccccc2)ccc1O` [Example 5, 5-Phenylsalicylaldehyde semicarbazone hydrochloride], the IC50 in experiment [1] was 0.5 to 2 µM; on CDK5 complexed with p25, less than 0.5 µM. The matching figures for `NC(=S)N/N=C/c1cc(-c2ccc(C(=O)O)cc2)ccc1O` [Example 19, 5-(4-Carboxyphenyl)salicylaldehyde thiosemicarbazone]: more than 5 µM and less than 0.5 µM. For `NC(=S)N/N=C/c1cc(-c2cccc(F)c2)ccc1O` [Example 15, 5-(3-Fluorophenyl)salicylaldehyde thiosemicarbazone], the IC50 (in experiment [1]; at CDK5 complexed with p25) was 0.5 to 2 µM each time.

Turning to `Nc1ccc(-c2cc(-c3ccc(O)cc3)ccc2O)nc1` [Example 48, 3-(5-Amino-pyridin-2-yl)-biphenyl-4,4′-diol], the IC50 (in experiment [1]; at CDK5 complexed with p25) was less than 0.5 µM in each case. `Nc1nc(-c2cc(-c3ccc(O)cc3)ccc2O)cc(N2CCNCC2)n1` [Example 78, 3-(2-Amino-6-piperazin-1-yl-pyrimidin-4-yl)-biphenyl-4,4′-diol]: the figures for the IC50 (in experiment [1]; on CDK5 complexed with p25) were more than 5 µM and less than 0.5 µM, respectively.

Take `COc1cccc(-c2ccc(O)c(/C=N/NC(N)=S)c2)c1` [Example 6, 5-(3-Methoxyphenyl)salicylaldehyde thiosemicarbazone]: the IC50 (in experiment [1]; at CDK5 complexed with p25) was 2 to 5 µM in each case. With `NC(=S)N/N=C/c1cc(-c2cccc(C(=O)O)c2)ccc1O` [Example 17, 5-(3-Carboxyphenyl)salicylaldehyde thiosemicarbazone], the figures for the IC50 (in experiment [1]; at CDK5 complexed with p25) were 0.5 to 2 µM and 2 to 5 µM, respectively.

As for `NC(=S)N/N=C/c1cc(Br)ccc1O` [Example 2, 5-Bromosalicylaldehyde thiosemicarbazone], the figures for the IC50 (in experiment [1]; on CDK5 complexed with p25) were 2 to 5 µM and 0.5 to 2 µM, respectively. The matching figures for `NC(=S)N/N=C/c1cc(-c2cncnc2)ccc1O` [Example 32, 5-(5-Pyrimidyl)salicylaldehyde thiosemicarbazone]: 2 to 5 µM and 2 to 5 µM. For `Nc1cc(-c2cc(-c3ccnc(N)n3)ccc2O)nc(N)n1` [Example 74, 2-(2,4-Diamino-pyrimidin-6-yl)-4-(2-aminopyrimidin-4-yl)-phenol], the IC50 in experiment [1] was less than 0.5 µM. Still for that read-out and setting: next, `Cc1cc(-c2cc(-c3ccnc(N)n3)ccc2O)nc(N)n1` [Example 72]: less than 0.5 µM.
